Experimental data as given in ChEMBL document CHEMBL5131552, “Diazepinone Compounds as Sppl2a Inhibitors for Treating Autoimmune Diseases and Lymphomas” (ACS Med Chem Lett, 2022).

Molecular target: T1, Signal peptide peptidase-like 2A (Homo sapiens, UniProt Q8TCT8)
T1 sequence (Q8TCT8 whole entry): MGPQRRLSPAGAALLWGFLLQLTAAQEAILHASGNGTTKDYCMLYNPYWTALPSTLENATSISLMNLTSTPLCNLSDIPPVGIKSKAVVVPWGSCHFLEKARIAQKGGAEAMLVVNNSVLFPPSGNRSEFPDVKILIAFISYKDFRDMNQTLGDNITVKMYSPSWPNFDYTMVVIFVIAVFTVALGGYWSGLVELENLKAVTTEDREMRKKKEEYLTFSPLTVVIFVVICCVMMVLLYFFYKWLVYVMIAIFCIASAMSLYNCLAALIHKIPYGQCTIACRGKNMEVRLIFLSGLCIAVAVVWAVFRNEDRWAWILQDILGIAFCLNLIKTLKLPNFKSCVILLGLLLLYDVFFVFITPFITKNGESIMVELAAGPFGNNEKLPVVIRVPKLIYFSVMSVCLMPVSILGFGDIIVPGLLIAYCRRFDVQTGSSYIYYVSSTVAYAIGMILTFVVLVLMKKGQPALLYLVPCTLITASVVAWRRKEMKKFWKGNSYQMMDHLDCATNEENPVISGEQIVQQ
Experiment: Inhibition of human SPPL2A expressed in human U2OS cells assessed as nuclear mask transferring to EGFP channel using EGFP-labeled TNFalpha (aa1-76) NTF as substrate and measured after 24 hrs by Hoechst staining based translocation assay
Assay type: cell-based

IC50: 1 nM
Compound: CC(C)C(=O)Nc1nc(Cl)c(NC(=O)C[C@@H](C)C(=O)N[C@@H]2C(=O)N3CCCN3Cc3ccccc32)s1
